Reference: PubChem BioAssay AID463229 (Broad Institute, 2010)
The source made the active and inactive calls.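 Rule for the calls: active = compounds raising the signal whose fitted half-maximal concentration is at or below their top tested dose (cut at about 25 µM in these data); inconclusive = flat fit at 30 to 70% activity, or a poor fit; inactive = the rest.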

Test system: INS-1E rat beta cells, no cytokines, CellTiter-Glo ATP, 48 h
Assay: ATP level change in INS-1E without cytokines, dose response, counter-screen for beta-cell apoptosis protection project, INS-1E rat cells, ATP luminescence, cherry pick (AID 463229)

Point of comparison: `Cc1cccc2nc(CSc3nc4[nH]ncc4c(=O)n3-c3cccc(Cl)c3)cc(=O)n12`, AC50 7.35 µM. Against it:
- CCc1ccc(OC)c(S(=O)(=O)Nc2ccc(Cc3ccncc3)cc2)c1 — within 1.5-fold, 6.36 µM
- CCN(CC)c1ccc(/C=N/NC(=O)CNC(=O)C2COc3ccccc3O2)c(O)c1 (stereo unspecified) — within 1.5-fold, 5.41 µM
- CCc1cc[n+](C2=C([O-])c3ccccc3C(=O)/C2=N\S(=O)(=O)c2cccs2)cc1 — within 1.5-fold, 9.35 µM
- C#CCOCCOCCOCCNc1nc(N2CCN(C(=O)CCCCCCCCCCNC(=O)[C@H]([C@@H](C)CC)n3cc(CCCCCN)nn3)CC2)nc(N2CCN(C(=O)CCCCCCCCCCNC(=O)[C@@H]([C@H](C)O)n3cc(C)nn3)CC2)n1 — within 1.5-fold, 6.55 µM
- CC[C@@]1(O)C(=O)OCc2c1cc1n(c2=O)Cc2cc3c(N)cccc3nc2-1 — lower, < 0.195 µM
- CCN(CC)c1ccc(/C=N/NC(=O)c2cccc(S(=O)(=O)Nc3ccccc3OC)c2)c(O)c1 — 4.5-fold lower, 1.62 µM
- Cc1ccc(NC(=O)c2c(C(F)(F)F)nn(C)c2SCc2cccc(C(F)(F)F)c2)cc1C — 1.6-fold higher, 11.8 µM
- Cc1sc2ncnc(N3CCN(S(=O)(=O)c4ccc(C(C)(C)C)cc4)CC3)c2c1C — 1.8-fold lower, 4.17 µM
- CCC1CCCCN1S(=O)(=O)c1ccc(NC(=O)c2nc(S(C)(=O)=O)ncc2Cl)cc1 (stereo unspecified) — within 1.5-fold, 8.01 µM
- COc1ccc(-c2nn(-c3ccccc3)cc2/C=N/Nc2ccc3ccccc3n2)cc1OC — within 1.5-fold, 7.19 µM
- Oc1ccc(CN2CCc3ccccc3C2)c2cccnc12 — 2-fold lower, 3.7 µM
- CC(C)(C)c1ccc(CSc2cnn(C(C)(C)C)c(=O)c2Cl)cc1 — lower, < 0.195 µM
- O=C(Nc1ccccc1O)C(c1ccccc1)c1ccccc1 — within 1.5-fold, 6.92 µM
- CCCC(=O)NC(NC(=S)Nc1ccc(N=Nc2ccccc2)cc1)C(Cl)(Cl)Cl (stereo unspecified) — within 1.5-fold, 7.51 µM
- Cc1cc(C)cc(Oc2cc(NC(=O)c3cn(C)nc3C)cc([N+](=O)[O-])c2)c1 — 2.8-fold lower, 2.58 µM
- COc1cc(NC(=O)COc2cc(O)c3c(c2)OC(C)(C)CC3=O)cc(OC)c1OC — within 1.5-fold, 6.45 µM
- CCOc1ccc(-c2cc(C(=O)NCCCn3ccnc3)c3cc(Br)ccc3n2)cc1 — 1.7-fold higher, 12.6 µM
- CCOC(=O)c1cnc(-n2nc(C)cc2C)nc1NNc1nc(-c2ccccc2)cc(-c2ccccc2)n1 — 1.8-fold lower, 4.09 µM
- CCCCNC1=CC(=O)C(=O)c2ccccc21 — within 1.5-fold, 7.75 µM
- COc1cccc(C(=O)Oc2c(CN3CCOCC3)cc(Cl)c3cccnc23)c1 — 1.9-fold higher, 14.3 µM
- Cc1cc(N/N=C/c2ccc(O)cc2O)nc(-n2nc(C)cc2C)n1 — within 1.5-fold, 6.67 µM
- CC(NC(=O)c1cc(COc2ccc3ncccc3c2)on1)c1ccc(F)cc1 (stereo unspecified) — within 1.5-fold, 5.86 µM
- Cc1ccc(-c2nc(NC(=O)c3nn(C)cc3[N+](=O)[O-])sc2C)cc1C — 2.1-fold lower, 3.43 µM
- Cc1nnsc1-c1onc(C)c1C(=O)Nc1cc(Cl)cc(Cl)c1 — 2.2-fold higher, 16.5 µM
- COc1ccc(-n2c(=S)[nH]c3cc(C(=O)Nc4ccccc4OC)ccc3c2=O)cc1 — within 1.5-fold, 8.24 µM
- Oc1ccc(Nc2nc(-c3ccc4ccccc4c3)cs2)cc1 — within 1.5-fold, 7.98 µM
- Cc1occc1C(=O)N/N=C/c1c(O)ccc2ccccc12 — within 1.5-fold, 7.95 µM
- O=C(Oc1c(Cl)cc(Cl)c2cccnc12)c1cccs1 — 2-fold higher, 15 µM
- C#CCOCCOCCOCCNc1nc(N2CCN(C(=O)CCCCCCCCCCNC(=O)[C@H](CCCCN)n3cc(C[C@@H](C)CC)nn3)CC2)nc(N2CCN(C(=O)CCCCCCCCCCNC(=O)[C@@H]([C@H](C)O)n3cc(C)nn3)CC2)n1 — within 1.5-fold, 6.91 µM
- O=C(NCCCn1ccnc1)c1ccc(-c2ccccc2)cc1 — within 1.5-fold, 8.12 µM
- CCOc1ccc(-c2c[n+]3c(n2-c2ccccc2)CCCCC3)cc1 — 7.5-fold lower, 0.982 µM
- COc1ccc(CC2(CO)CCN(CC3=Cc4cc(Cl)ccc4OC3)CC2)cc1 — 1.8-fold lower, 4.18 µM
- O=c1c2ccccc2nc(N/N=C/c2c(O)ccc3ccccc23)n1O — 2-fold lower, 3.65 µM
- CCN1C/C(=C/c2cccc([N+](=O)[O-])c2)C(=O)/C(=C/c2cccc([N+](=O)[O-])c2)C1 — 3.1-fold lower, 2.39 µM
- CC(C)CN(C(=O)COC(=O)C12CC3CC(CC(Cl)(C3)C1)C2)c1c(N)n(Cc2ccccc2)c(=O)[nH]c1=O — within 1.5-fold, 6.97 µM
- CCOc1ccccc1NC(=O)c1nc(S(=O)(=O)Cc2cccc(C)c2)ncc1Cl — within 1.5-fold, 7.91 µM
- COC(=O)C1=C(C)N(Cc2ccccc2)C(=NCc2cccc(C(F)(F)F)c2)N[C@H]1c1cccc(C(F)(F)F)c1 — within 1.5-fold, 7.34 µM
- O=C(Cc1ccccc1)N/N=C/c1ccc([N+](=O)[O-])s1 — within 1.5-fold, 7.26 µM
- O=C(/C=C/NNC(=O)c1ccccc1)c1ccc([N+](=O)[O-])cc1 — within 1.5-fold, 5.76 µM
- CCOC(=O)c1c(C)[nH]c(C)c1C(=O)CSc1nc2ccccc2c(=O)n1-c1ccc(CC)cc1 — within 1.5-fold, 5.33 µM
- O=S(=O)(NCc1ccncc1)c1ccc(Br)s1 — 1.7-fold lower, 4.25 µM
- CC(=O)c1sc(NC(=O)C2(F)C(F)(F)C(F)(F)C(F)(F)C(F)(F)C2(F)F)nc1C — 1.8-fold lower, 4.17 µM
- CCOC(=O)[C@@H]1[C@H]2COc3cc(OC)ccc3[C@H]2N2C(=O)N(c3ccc(C(F)(F)F)cc3)C(=O)[C@]12C — 2-fold higher, 15 µM
- Cc1cc(/C=N/n2cnnc2)c(C)n1-c1ccc(OCc2ccc(Cl)cc2Cl)cc1 — 4.3-fold lower, 1.71 µM
- Cc1ccc(NC2=C/C(=N/S(=O)(=O)c3cccs3)c3ccccc3C2=O)cc1 — 3.1-fold lower, 2.37 µM
- CCN1/C(=C/C=C/c2oc3ccc(-c4ccccc4)cc3[n+]2CC)Oc2ccc(-c3ccccc3)cc21 — 9.4-fold lower, 0.78 µM
- Clc1ccc(-c2cc(-c3nnc4n3CCCCC4)c3ccccc3n2)cc1 — within 1.5-fold, 4.91 µM

For `Cc1c(C(=O)N(Cc2ccccc2)C(C)C)oc2ccc(S(=O)(=O)N3CCOCC3)cc12`, the AC50 was > 26 µM (inactive).
In the case of `CN(C)C(=O)c1ccc(NC(=O)c2cccc(S(=O)(=O)N3CCCCCC3)c2)cc1`, the AC50 is reported as > 26 µM (inactive).
With `Cc1nc2c3cc(F)ccc3n(Cc3ccccc3)c2s1` the AC50 was > 26 µM (inactive).
